Measurements published in ChEMBL document CHEMBL1141582, “Multi-target-directed coumarin derivatives: hAChE and BACE1 inhibitors as potential anti-Alzheimer compounds” (Bioorg Med Chem Lett, 2008).

Tests used:
[1] = molecular target: Beta-secretase 1 (Homo sapiens, UniProt P56817); experiment: Inhibition of human recombinant BACE1 by spectrofluorimetric method
[2] = molecular target: Acetylcholinesterase (Homo sapiens, UniProt P22303); experiment: Inhibition of human recombinant AChE by Ellman method
Acetylcholinesterase, sequence (P22303 whole entry): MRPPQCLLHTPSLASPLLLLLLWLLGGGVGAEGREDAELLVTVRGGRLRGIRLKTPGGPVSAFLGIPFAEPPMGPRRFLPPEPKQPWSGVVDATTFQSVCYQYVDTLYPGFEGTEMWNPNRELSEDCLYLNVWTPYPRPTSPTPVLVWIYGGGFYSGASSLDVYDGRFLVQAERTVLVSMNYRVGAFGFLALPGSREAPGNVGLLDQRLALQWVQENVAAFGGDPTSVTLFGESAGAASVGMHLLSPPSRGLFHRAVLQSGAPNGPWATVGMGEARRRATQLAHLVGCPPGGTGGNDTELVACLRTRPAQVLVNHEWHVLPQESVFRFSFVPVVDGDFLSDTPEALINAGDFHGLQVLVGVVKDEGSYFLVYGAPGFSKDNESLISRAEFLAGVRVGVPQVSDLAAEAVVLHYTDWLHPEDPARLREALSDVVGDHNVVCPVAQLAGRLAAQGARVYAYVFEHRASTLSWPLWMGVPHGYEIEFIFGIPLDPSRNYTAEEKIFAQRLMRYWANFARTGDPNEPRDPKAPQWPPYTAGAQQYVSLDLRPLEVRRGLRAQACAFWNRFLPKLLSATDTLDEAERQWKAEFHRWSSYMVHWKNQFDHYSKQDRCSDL

Beta-secretase 1, sequence (P56817 whole entry): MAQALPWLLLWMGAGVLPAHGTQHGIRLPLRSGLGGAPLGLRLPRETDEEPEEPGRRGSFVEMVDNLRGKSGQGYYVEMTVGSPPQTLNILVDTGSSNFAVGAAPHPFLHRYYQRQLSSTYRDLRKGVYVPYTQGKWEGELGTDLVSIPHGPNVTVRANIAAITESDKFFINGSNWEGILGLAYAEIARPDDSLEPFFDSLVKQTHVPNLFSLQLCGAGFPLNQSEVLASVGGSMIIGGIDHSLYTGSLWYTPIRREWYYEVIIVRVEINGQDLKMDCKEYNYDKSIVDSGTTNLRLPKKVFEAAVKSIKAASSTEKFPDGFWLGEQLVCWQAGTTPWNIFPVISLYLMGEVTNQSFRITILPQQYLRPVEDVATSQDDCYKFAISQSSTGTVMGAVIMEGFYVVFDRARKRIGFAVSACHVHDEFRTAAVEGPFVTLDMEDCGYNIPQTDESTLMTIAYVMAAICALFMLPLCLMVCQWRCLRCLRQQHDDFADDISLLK

SMILES | IC50 [1] [nM] | IC50 [2] [nM]
CCN(Cc1ccccc1)Cc1ccc(-c2cc3ccc(OCCNC(=O)/C=C/c4ccc(Cl)c(Cl)c4)cc3oc2=O)cc1 | 151 | 4230
CCN(Cc1ccccc1)Cc1ccc(-c2cc3ccc(OCCNC(=O)/C=C/c4cc(F)cc(F)c4)cc3oc2=O)cc1 | 121 | 4570
CCN(Cc1ccccc1)Cc1ccc(-c2cc3cc(OCCNC(=O)/C=C/c4cc(F)cc(F)c4)ccc3oc2=O)cc1 | 99 | 7160
CCN(Cc1ccccc1)Cc1ccc(-c2cc3ccc(OCCNC(=O)CCc4ccc(F)c(F)c4)cc3oc2=O)cc1 | 114 | 327
CCN(Cc1ccccc1)Cc1ccc(-c2cc3ccc(OCCNC(=O)Cc4cc(F)cc(F)c4)cc3oc2=O)cc1 | 150 | 181
CCN(Cc1ccccc1)Cc1ccc(-c2cc3cc(OCCNC(=O)Cc4cc(F)cc(F)c4)ccc3oc2=O)cc1 | 149 | 551
CCN(Cc1ccccc1)Cc1ccc(-c2cc3cc(OCCNC(=O)/C=C/c4ccc(Cl)c(Cl)c4)ccc3oc2=O)cc1 | 133 | 267000
CCN(Cc1ccccc1)Cc1ccc(-c2cc3cc(OCCNC(=O)CCc4ccc(F)c(F)c4)ccc3oc2=O)cc1 | 116 | 2770
